Measured values: the supplement of paper PMC10307832

How the values were obtained:
Experiment in all cases: relative viability (nuclei count vs DMSO), 5 days (fraction); higher = more cells survive
[1] = compound: CN(C)C/C=C/C(=O)Nc1cc2c(Nc3ccc(F)c(Cl)c3)ncnc2cc1O[C@H]1CCOC1 [Afatinib] + COc1cccc2cc(-c3nc([C@H]4CC[C@H](C(=O)O)CC4)n4ncnc(N)c34)[nH]c12 [OSI-027] (partner 0.5 µM)
How it was run: (§1)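 One day after seeding in 1536-well plates, lung cancer cell lines were dosed by pin tool. Dosing was either single-drug or a fixed anchor-drug dose plus five library-drug doses (not always all listed) in √10 steps. After 5 days, nuclei were stained in one fix-and-stain step and counted on 4× images, and relative viability is the nuclei count of treated wells over that of vehicle wells, given as the median of duplicate plates.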

[2] = compound: CN(C)C/C=C/C(=O)Nc1cc2c(Nc3ccc(F)c(Cl)c3)ncnc2cc1O[C@H]1CCOC1 [Afatinib] + CS(=O)(=O)CCNCc1ccc(-c2ccc3ncnc(Nc4ccc(OCc5cccc(F)c5)c(Cl)c4)c3c2)o1 [Lapatinib] (partner 2 µM)
How it was run: as §1

[3] = compound: CN(C)C/C=C/C(=O)Nc1cc2c(Nc3ccc(F)c(Cl)c3)ncnc2cc1O[C@H]1CCOC1 [Afatinib] + C[C@]1(O)C[C@@H](c2nc(-c3ccc4ccc(-c5ccccc5)nc4c3)c3c(N)nccn32)C1 [Linsitinib] (partner 1 µM)
How it was run: as §1

[4] = compound: CN(C)C/C=C/C(=O)Nc1cc2c(Nc3ccc(F)c(Cl)c3)ncnc2cc1O[C@H]1CCOC1 [Afatinib] + Cc1nc(NC(=O)N2CCC[C@H]2C(N)=O)sc1-c1ccnc(C(C)(C)C(F)(F)F)c1 [Alpelisib] (partner 2 µM)
How it was run: as §1

Cell Line	relative viability ([1]; first compound 0.005 µM)	relative viability ([1]; first compound 0.01581 µM)	relative viability ([1]; first compound 0.05 µM)	relative viability ([1]; first compound 0.1581 µM)	relative viability ([1]; first compound 0.5 µM)	relative viability ([2]; first compound 0.005 µM)	relative viability ([2]; first compound 0.01581 µM)	relative viability ([2]; first compound 0.05 µM)	relative viability ([2]; first compound 0.1581 µM)	relative viability ([2]; first compound 0.5 µM)	relative viability ([3]; first compound 0.005 µM)	relative viability ([3]; first compound 0.01581 µM)	relative viability ([3]; first compound 0.05 µM)	relative viability ([3]; first compound 0.1581 µM)	relative viability ([3]; first compound 0.5 µM)	relative viability ([4]; first compound 0.005 µM)	relative viability ([4]; first compound 0.01581 µM)	relative viability ([4]; first compound 0.05 µM)	relative viability ([4]; first compound 0.1581 µM)	relative viability ([4]; first compound 0.5 µM)
LXF-289	0.82	0.606	0.62	0.602	0.67	0.937	0.91	0.95	0.903	0.917	1	0.927	0.947	0.851	0.947	0.97	1.01	1.02	0.919	0.975
NCI-H23	0.585	0.611	0.54	0.599	0.47	1.34	1.23	1.08	1.04	1.01	0.601	0.628	0.584	0.523	0.486	0.771	0.735	0.725	0.636	0.561
NCI-H322M	0.511	0.422	0.463	0.356	0.397	0.554	0.547	0.499	0.57	0.465	0.847	0.616	0.468	0.419	0.588	0.666	0.519	0.495	0.384	0.335
NCI-H358	0.484	0.316	0.239	0.19	0.189	0.502	0.356	0.408	0.436	0.432	0.466	0.329	0.366	0.318	0.264	0.668	0.488	0.324	0.255	0.37
NCI-H460	0.716	0.629	0.676	0.705	0.666	0.973	0.932	1.04	1.02	0.842	0.74	0.713	0.905	0.866	0.796	0.52	0.509	0.484	0.543	0.349
NCI-H520	0.357	0.198	0.201	0.261	0.234	0.857	0.78	0.918	0.903	0.687	0.983	0.998	0.992	0.931	0.802	1.07	0.903	1.02	1.01	0.872
NCI-H596	0.728	0.701	0.746	0.613	0.651	1.09	1.08	1.09	1.02	1.02	1.06	1.16	1.1	1.02	0.888	0.542	0.512	0.528	0.385	0.538
NCI-H647	0.582	0.629	0.487	0.705	0.554	1.09	0.948	1.16	1.24	1.2	1.1	1.22	1.24	1.27	1.18	1.22	1.13	1.17	1.03	1.05
NCI-H650	0.557	0.475	0.566	0.516	0.503	1.01	0.844	1.19	1.21	0.684	0.872	0.706	1.03	0.999	0.697	1.23	1.11	1.14	1.25	1.06
NCI-H661	0.558	0.458	0.528	0.386	0.367	0.682	0.469	0.573	0.454	0.443	0.669	0.531	0.516	0.375	0.294	0.666	0.389	0.475	0.398	0.349
NCI-H727	0.699	0.447	0.511	0.49	0.56	0.892	0.861	0.894	0.639	0.948	0.282	0.307	0.284	0.267	0.28	0.579	0.462	0.503	0.417	0.561
NCI-H838	0.445	0.353	0.371	0.365	0.363	0.986	0.953	1.07	1.08	1.06	1.04	0.949	1.07	0.952	1.06	0.93	1.1	1.06	0.905	1.1
NCI-H1355	0.388	0.341	0.348	0.361	0.276	1.03	1.08	1	0.945	1.03	0.744	0.828	0.728	0.586	0.662	0.782	0.89	0.918	0.656	0.645
NCI-H1395	0.587	0.561	0.688	0.681	0.592	1.13	0.965	1.22	1.02	0.897	1.43	1.13	1.22	1.19	1.13	1.11	1.17	1.08	1.41	1.29
NCI-H1437	0.988	0.848	0.894	0.873	0.9	0.891	0.79	0.758	0.778	0.779	1.18	1.1	0.941	0.98	0.967	0.99	1.06	1.04	0.924	1.01
NCI-H1563	0.729	0.739	0.737	0.709	0.746	0.965	0.874	1.08	1.04	0.854	1.32	1.14	1.27	1.06	1.21	0.953	0.953	0.87	0.83	1.03
